Several values for one entry are separate records, joined by “and”; a condition that tells them apart may be missing. Equal entries are not always repeated. Toxic doses and inconclusive results are not listed. The calls were made as follows: active = survival T/C of 150% or more; inactive = T/C below 125% in these data.
Tested on: P388 leukemia ip, CD2F1 mice, survival T/C
Test: NCI In Vivo Anticancer Drug Screen. Data for tumor model P388 Leukemia (intraperitoneal) in CD2F1 (CDF1) mice
Conditions: endpoint: median survival time, higher = longer survival
Method in brief: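 Mice carrying the transplanted tumor received test compound or vehicle. Survival was recorded in each group, and the value is the treated-group measurement divided by that of the vehicle-treated control group.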

[1] = dose: 25.0 mg/kg/injection, schedule: Q01DX009 (ip), vehicle: saline
[2] = dose: 100.0 mg/kg/injection, schedule: Q04DX002 (ip), vehicle: saline with Tween-80
[3] = dose: 200.0 mg/kg/injection, schedule: Q04DX002 (ip), vehicle: saline with Tween-80
[4] = dose: 50.0 mg/kg/injection, schedule: Q01DX009 (ip), vehicle: Klucel (hydroxypropylcellulose) (HPC)
[5] = dose: 100.0 mg/kg/injection, schedule: Q01DX009 (ip), vehicle: Klucel (hydroxypropylcellulose) (HPC)
[6] = dose: 200.0 mg/kg/injection, schedule: Q01DX009 (ip), vehicle: Klucel (hydroxypropylcellulose) (HPC)
[7] = dose: 50.0 mg/kg/injection, schedule: Q01DX009 (ip), vehicle: saline with Tween-80
[8] = dose: 100.0 mg/kg/injection, schedule: Q01DX009 (ip), vehicle: saline with Tween-80
[9] = dose: 200.0 mg/kg/injection, schedule: Q01DX009 (ip), vehicle: saline with Tween-80
[10] = dose: 60.0 mg/kg/injection, schedule: Q01DX005 (ip), vehicle: saline with Tween-80
[11] = dose: 120.0 mg/kg/injection, schedule: Q01DX005 (ip), vehicle: saline with Tween-80
[12] = dose: 240.0 mg/kg/injection, schedule: Q01DX005 (ip), vehicle: saline with Tween-80

Measured: T/C

COc1cc2c(c(OC)c1OC)-c1ccc(OC)c(=O)cc1C(N(C)C(=O)CO)CC2 (stereo unspecified)
112 % of control and 212 % of control: dose: 1.25 mg/kg/injection, schedule: Q01DX009 (ip), vehicle: Klucel (hydroxypropylcellulose) (HPC)
inactive: dose: 0.16 mg/kg/injection, schedule: Q01DX009 (ip), vehicle: Klucel (hydroxypropylcellulose) (HPC) 120 % of control and 123 % of control
active: dose: 0.31 mg/kg/injection, schedule: Q01DX009 (ip), vehicle: Klucel (hydroxypropylcellulose) (HPC) 155 % of control | dose: 0.62 mg/kg/injection, schedule: Q01DX009 (ip), vehicle: Klucel (hydroxypropylcellulose) (HPC) 166 % of control | dose: 0.62 mg/kg/injection, schedule: Q01DX009 (ip), vehicle: saline 189 % of control

CCCCCCCNC1=C(N2CC2)C(=O)C(NCCCCCCC)=C(N2CC2)C1=O
inactive: dose: 1.25 mg/kg/injection, schedule: Q01DX009 (ip), vehicle: saline 100 % of control | dose: 2.5 mg/kg/injection, schedule: Q01DX009 (ip), vehicle: saline 105 % of control and 107 % of control | dose: 5.0 mg/kg/injection, schedule: Q01DX009 (ip), vehicle: saline 105 % of control and 106 % of control | dose: 10.0 mg/kg/injection, schedule: Q01DX009 (ip), vehicle: saline 106 % of control and 94 % of control | dose: 20.0 mg/kg/injection, schedule: Q01DX009 (ip), vehicle: saline 115 % of control and 90 % of control

CC(C)(C)NC(=S)N/N=C/c1ccccc1O
inactive: dose: 50.0 mg/kg/injection, schedule: Q01DX005 (ip), vehicle: saline with Tween-80 108 % of control | dose: 100.0 mg/kg/injection, schedule: Q01DX005 (ip), vehicle: saline with Tween-80 109 % of control | dose: 200.0 mg/kg/injection, schedule: Q01DX005 (ip), vehicle: saline with Tween-80 107 % of control

O=C1NCC(Br)C(=O)N1 (stereo unspecified)
inactive: dose: 25.0 mg/kg/injection, schedule: Q01DX009 (ip), vehicle: other 113 % of control | dose: 25.0 mg/kg/injection, schedule: Q01DX009 (ip), vehicle: saline + Tween-80 + alcohol 112 % of control | dose: 50.0 mg/kg/injection, schedule: Q01DX009 (ip), vehicle: saline + Tween-80 + alcohol 121 % of control | dose: 100.0 mg/kg/injection, schedule: Q01DX009 (ip), vehicle: saline + Tween-80 + alcohol 122 % of control

C=CC(=NC(C)(C)C)Nc1ccccc1Cl
inactive: dose: 3.12 mg/kg/injection, schedule: Q01DX009 (ip), vehicle: Klucel (hydroxypropylcellulose) (HPC) 104 % of control | dose: 6.25 mg/kg/injection, schedule: Q01DX009 (ip), vehicle: Klucel (hydroxypropylcellulose) (HPC) 103 % of control | dose: 6.25 mg/kg/injection, schedule: Q01DX009 (ip), vehicle: saline 116 % of control | dose: 12.5 mg/kg/injection, schedule: Q01DX009 (ip), vehicle: Klucel (hydroxypropylcellulose) (HPC) 102 % of control | dose: 12.5 mg/kg/injection, schedule: Q01DX009 (ip), vehicle: saline 118 % of control and 93 % of control | [1] 111 % of control

Clc1ccccc1N/N=c1\nnc2c(Cl)cccc2s1
inactive: dose: 50.0 mg/kg/injection, schedule: Q04DX002 (ip), vehicle: saline with Tween-80 95 % of control | [2] 94 % of control | [3] 91 % of control

CC(C)c1ccccc1[S+]1OC(C)(C)c2ccccc21 (stereo unspecified)
inactive: [4] 107 % of control | [5] 103 % of control | [6] 95 % of control

CCCCCCCCCCCCCCCCCS(=O)S(=O)O (stereo unspecified)
inactive: [7] 113 % of control | [8] 118 % of control | dose: 100.0 mg/kg/injection, schedule: Q04DX003 (ip), vehicle: Klucel (hydroxypropylcellulose) (HPC) 100 % of control | [9] 122 % of control | dose: 200.0 mg/kg/injection, schedule: Q04DX003 (ip), vehicle: Klucel (hydroxypropylcellulose) (HPC) 109 % of control | dose: 400.0 mg/kg/injection, schedule: Q04DX003 (ip), vehicle: Klucel (hydroxypropylcellulose) (HPC) 113 % of control

O=C1C=C2OCOC2=CC1=O
inactive: dose: 4.38 mg/kg/injection, schedule: Q01DX005 (ip), vehicle: Klucel (hydroxypropylcellulose) (HPC) 100 % of control | dose: 8.75 mg/kg/injection, schedule: Q01DX005 (ip), vehicle: Klucel (hydroxypropylcellulose) (HPC) 99 % of control | dose: 17.5 mg/kg/injection, schedule: Q01DX005 (ip), vehicle: Klucel (hydroxypropylcellulose) (HPC) 103 % of control and 104 % of control

Cc1ccc(S(=O)(=O)N(Cc2ccc(Cl)cc2)S(=O)(=O)c2ccc(C)cc2)cc1
inactive: [1] 110 % of control | dose: 50.0 mg/kg/injection, schedule: Q01DX009 (ip), vehicle: saline 108 % of control | dose: 100.0 mg/kg/injection, schedule: Q01DX009 (ip), vehicle: saline 100 % of control | [6] 100 % of control

CC1(C)CC(OP(=S)(OC2CC(C)(C)N(O)C(C)(C)C2)N2CC2)CC(C)(C)N1O
inactive: dose: 50.0 mg/kg/injection, schedule: Q01DX009 (ip), vehicle: saline + alcohol 124 % of control
active: dose: 200.0 mg/kg/injection, schedule: Q01DX009 (ip), vehicle: saline + alcohol 168 % of control

Cn1c(=S)[nH]c2sc3c(c2c1=O)CCCCC3
inactive: [10] 101 % of control | [11] 97 % of control | [12] 90 % of control

CCCCCN(CCCCC)CC(O)c1ccc(OC)c2ccccc12 (stereo unspecified)
inactive: dose: 50.0 mg/kg/injection, schedule: Q01DX005 (ip), vehicle: Klucel (hydroxypropylcellulose) (HPC) 88 % of control | dose: 100.0 mg/kg/injection, schedule: Q01DX005 (ip), vehicle: Klucel (hydroxypropylcellulose) (HPC) 88 % of control

O=C1/C(=C/c2cccnc2)CCc2ccccc21
inactive: dose: 25.0 mg/kg/injection, schedule: Q01DX009 (ip), vehicle: saline with Tween-80 104 % of control | [4] 116 % of control | [7] 108 % of control | [5] 102 % of control | [8] 105 % of control | [6] 109 % of control | [9] 95 % of control

Cc1nc2c(O)ccc(O)c2nc1C
inactive: dose: 3.75 mg/kg/injection, schedule: Q01DX009 (ip), vehicle: saline with Tween-80 99 % of control | dose: 3.75 mg/kg/injection, schedule: Q04DX003 (ip), vehicle: saline with Tween-80 100 % of control | dose: 7.5 mg/kg/injection, schedule: Q01DX009 (ip), vehicle: saline with Tween-80 94 % of control | dose: 7.5 mg/kg/injection, schedule: Q04DX003 (ip), vehicle: saline with Tween-80 99 % of control | dose: 15.0 mg/kg/injection, schedule: Q01DX009 (ip), vehicle: saline with Tween-80 88 % of control | dose: 15.0 mg/kg/injection, schedule: Q04DX003 (ip), vehicle: saline with Tween-80 106 % of control | dose: 30.0 mg/kg/injection, schedule: Q01DX009 (ip), vehicle: saline with Tween-80 95 % of control | dose: 30.0 mg/kg/injection, schedule: Q04DX003 (ip), vehicle: saline with Tween-80 109 % of control | dose: 60.0 mg/kg/injection, schedule: Q01DX009 (ip), vehicle: saline with Tween-80 110 % of control | dose: 60.0 mg/kg/injection, schedule: Q04DX003 (ip), vehicle: saline with Tween-80 109 % of control

COc1cccc2c1C(=O)c1c(O)c3c(c(O)c1C2=O)CC(O)(/C(C)=N/NC(=O)CCCCCC(=O)N/N=C(\C)C1(O)Cc2c(O)c4c(c(O)c2C(OC2CC(N)C(O)C(C)O2)C1)C(=O)c1c(OC)cccc1C4=O)CC3OC1CC(N)C(O)C(C)O1 (stereo unspecified)
inactive: dose: 12.5 mg/kg/injection, schedule: Q01DX009 (ip), vehicle: water 88 % of control and 93 % of control
active: dose: 0.78 mg/kg/injection, schedule: Q01DX009 (ip), vehicle: water 158 % of control | dose: 1.56 mg/kg/injection, schedule: Q01DX009 (ip), vehicle: water 157 % of control and 163 % of control | dose: 3.13 mg/kg/injection, schedule: Q01DX009 (ip), vehicle: water 153 % of control and 154 % of control | dose: 6.25 mg/kg/injection, schedule: Q01DX009 (ip), vehicle: water 200 % of control and 202 % of control

CCOC(=O)C1=C(C(=O)c2ccc(OC)cc2)C(c2ccc(Cl)cc2Cl)C(C(=O)c2ccc(OC)cc2)=C(C(=O)OCC)N1
inactive: dose: 30.0 mg/kg/injection, schedule: Q01DX005 (ip), vehicle: saline with Tween-80 96 % of control | [10] 91 % of control and 94 % of control | [11] 101 % of control | [12] 92 % of control

CC(C)=CCC(OC(=O)C=C(C)C)c1cc(O)c2c(O)ccc(O)c2c1O.[Ni] (stereo unspecified)
inactive: [2] 111 % of control | [3] 105 % of control | dose: 400.0 mg/kg/injection, schedule: Q04DX002 (ip), vehicle: saline with Tween-80 114 % of control

CC(C)CCCC(C)C1CCC2C3CCC4CC(OP(=O)(O)O)CCC4(C)C3CCC12C (stereo unspecified)
inactive: [7] 99 % of control | [8] 96 % of control | [9] 93 % of control
